Data set [1] relates to RAW264.7. In words: Antiinflammatory activity in mouse RAW264.7 cells assessed as inhibition of LPS-stimulated NO production at 100 uM after 24 hrs by spectrophotometry. Type of data set: functional.
In data set [2] the test system is RAW264.7. In words: Antiinflammatory activity in mouse RAW264.7 cells assessed as inhibition of LPS-stimulated NO production at 0.1 to 100 uM after 24 hrs by spectrophotometry. It counts as functional, cell-based.
Data set [3] relates to RAW264.7. In words: Cytotoxicity against mouse RAW264.7 cells by Alamar blue assay. It counts as cell-based. (In general: Alamar Blue is a resazurin reagent that responds to reducing activity.)

Five compounds from ChEMBL document CHEMBL1811900, “Sesquiterpene glycosides from Cosmospora joca” (J Nat Prod, 2011) can be followed below.

The source made the active and inactive calls. No cut-off for these calls is given here.

In general, IC50 refers to the concentration needed to halve the response being measured.

With `CC(=O)OC(CC(=O)C(C)CCC=C(C)C)/C(C)=C/CO[C@@H]([C@H](O)[C@H](O)CO)[C@H](O)CO` (stereo partly drawn), the inhibition entry in the data set on RAW264.7 [1] is “Active”. The same measure, in the same setting: under `CC(=O)O[C@@H](C[C@H](O[C@@H]1O[C@H](CO)[C@@H](O)[C@H](O)[C@@H]1O)[C@](C)(O)CCC=C(C)C)/C(C)=C/CO[C@@H]([C@H](O)[C@H](O)CO)[C@H](O)COCC=C(C)C` stands “inactive”.

As to `CCCCCCCCCC(=O)O[C@@H]1[C@H](O[C@@H](C[C@H](OC(C)=O)/C(C)=C/CO[C@@H]([C@H](O)[C@H](O)CO)[C@H](O)CO)[C@](C)(O)CCC=C(C)C)O[C@H](CO)[C@@H](O)[C@@H]1O` [COSMOSPORASIDE D], the inhibition result in the data set on RAW264.7 [2] is “Dose-dependent effect”. Also, the IC50 with RAW264.7 [2] (RAW264.7, 24 h) was determined as 66 µM. Also, in the data set on RAW264.7 [1], the Imax turned out to be 71.7%. With `CC(C)=CCC/C(C)=C/CC/C(C)=C/CO[C@@H]([C@H](O)[C@H](O)CO)[C@H](O)CO` [COSMOSPORASIDE A], the Activity entry in the data set on RAW264.7 [3] is recorded as “Toxic”. The Imax with RAW264.7 [1] is 54.52%.

Turning to `CCCCC/C=C\CCC(=O)O[C@@H]1[C@H](O[C@@H](C[C@H](OC(C)=O)/C(C)=C/CO[C@@H]([C@H](O)[C@H](O)CO)[C@H](O)CO)[C@](C)(O)CCC=C(C)C)O[C@H](CO)[C@@H](O)[C@@H]1O`, the inhibition entry in the data set on RAW264.7 [1] was “Active”.
